The numbers were not newly measured in patent US20090176850A1, “Novel 2-Amino-Imidazole-4-One Compounds And Their Use In The Manufacture Of A Medicament To Be Used In The Treatment Of Cognitive Impairment, Alzheimer's Disease, Neurodegeneration And Dementia” (ASTRAZENECA AB, priority 2005, published 2009), which cites them from elsewhere.

Non-standard residues stand in square brackets, D forms with d. Residues, ends and D or L forms follow the SMILES beside them. *: point of attachment. Sta = CC(C)C[C@H](N)[C@@H](O)CC(=O)O; Isovaleryl = CC(C)CC(=O)*

In this data set the target is BACE (Homo sapiens, UniProt P56817). The following applies: Vassar et al, 1999.
Sequence of BACE (P56817 46-501): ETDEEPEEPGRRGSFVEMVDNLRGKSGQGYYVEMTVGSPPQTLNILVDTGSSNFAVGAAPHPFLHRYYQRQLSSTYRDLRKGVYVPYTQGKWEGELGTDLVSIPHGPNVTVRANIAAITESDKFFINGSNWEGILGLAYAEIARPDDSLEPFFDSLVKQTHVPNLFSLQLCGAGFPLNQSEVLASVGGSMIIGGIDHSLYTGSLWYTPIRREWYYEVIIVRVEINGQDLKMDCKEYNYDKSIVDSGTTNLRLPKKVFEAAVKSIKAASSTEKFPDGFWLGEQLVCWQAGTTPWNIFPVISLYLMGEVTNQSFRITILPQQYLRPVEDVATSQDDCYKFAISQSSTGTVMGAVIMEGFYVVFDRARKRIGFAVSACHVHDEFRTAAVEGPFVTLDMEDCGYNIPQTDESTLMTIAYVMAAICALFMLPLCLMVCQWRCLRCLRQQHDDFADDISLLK

For `CC(C)CC(=O)N[C@H](C(=O)N[C@H](C(=O)N[C@@H](CC(C)C)[C@@H](O)CC(=O)N[C@@H](C)C(=O)N[C@@H](CC(C)C)[C@@H](O)CC(=O)O)C(C)C)C(C)C` [pepstatin] (Isovaleryl-VV[Sta]A[Sta]-OH), the “inhibition of BACE” value was “inhibited weakly”.
